Data from PubChem BioAssay (NCI).
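Dose response: 5 concentrations. Exposure: 48 h. Format: 96-well plates. Endpoint: linear interpolation; highest concentration if not reached. GI50: concentration for 50% inhibition of growth. TGI denotes the concentration required for complete inhibition of growth.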

Assays:
Assay in all cases: inhibition of tumour cell growth, NCI panel, 48 h
[1] = system: A498 renal
[2] = system: CCRF-CEM leukemia
[3] = system: DMS 114 small cell lung
[4] = system: DMS 273 small cell lung
[5] = system: HCT-116 colon
[6] = system: KM20L2 colon
[7] = system: LXFL 529 NSCLC
[8] = system: U251 CNS

Structure (SMILES) | TGI [1] [µM] | TGI [2] [µM] | TGI [3] [µM] | TGI [4] [µM] | TGI [5] [µM] | TGI [6] [µM] | TGI [7] [µM] | TGI [8] [µM] | GI50 [1] [µM] | GI50 [2] [µM] | GI50 [3] [µM] | GI50 [4] [µM] | GI50 [5] [µM] | GI50 [6] [µM] | GI50 [7] [µM] | GI50 [8] [µM]
C=CCc1ccc(Oc2cc(CC=C)c3c(c2O)O[C@@H](CO)[C@H]3c2ccc(O)c(-c3cc(CC=C)ccc3O)c2)cc1 | > 100 | 46.6 | 54.6 | > 100 | > 100 | 93.5 | 90.7 | 51.8 |  |  |  |  |  |  |  | 
CCN(CC)c1ccc(N=Nc2ccc(-c3nc4ccc[n+](C)c4s3)cc2)cc1 | 26.6 | > 100 |  | 13.5 | 20.5 | 19.9 | 17.9 | 27.1 |  |  |  |  |  |  |  | 
O=C1/C(=C/c2cccc([N+](=O)[O-])c2)COc2ccc(Br)cc21 | > 100 | > 100 | > 100 | > 100 | > 100 | > 100 | > 100 | > 100 |  |  |  |  |  |  |  | 
CSC(C1c2ccccc2N(c2ccc(C)cc2)c2[nH]c(=O)n(C)c(=O)c21)S(=O)(=O)c1ccc(C)cc1 (stereo not drawn) | > 100 | > 100 | > 100 | > 100 | > 100 | > 100 | > 100 | > 100 |  |  |  |  |  |  |  | 
O=C(c1ccccc1)C1OC12C(=O)Nc1ccccc12 (stereo not drawn) | > 100 | 25.2 | 88.8 | > 100 | > 100 | 66.8 | 30.3 |  |  |  |  |  |  |  |  | 
O=C1NC2OC(C(O)CO)C(O)C2O1 (stereo not drawn) | > 100 | > 100 | > 100 | > 100 | > 100 | > 100 | > 100 | > 100 |  |  |  |  |  |  |  | 
N#CC1CC2(C1)OCCS2 (stereo not drawn) | > 100 | > 100 |  | > 100 | > 100 | > 100 | > 100 | > 100 |  |  |  |  |  |  |  | 
NC(=O)NCc1c(C(N)=O)ncn1Cc1ccccc1 | > 100 | > 100 | > 100 | > 100 | > 100 | > 100 | > 100 | > 100 |  |  |  |  |  |  |  | 
C1C[OH+]CC[OH+]CC[OH+]CC[OH+]CC[OH+]1.[Cl-].[V] | > 100 | > 100 | > 100 | > 100 | > 100 | > 100 | > 100 | > 100 | > 100 | > 100 | > 100 | 53 | > 100 | > 100 | > 100 | 50.4
O=C1OC2CCCC[C@@H]2C2C[C@]34CCCCC3[C@@H](C(=O)O4)C12 (stereo partly drawn) | > 100 | > 100 | > 100 |  | > 100 | > 100 | > 100 | > 100 |  |  |  |  |  |  |  | 
Cc1c(C(=O)/C=C/c2ccccc2)[n+](=O)c2ccccc2n1[O-] | 31.3 | 74.7 | 22.2 | 30.1 | 32.4 | 35.5 | 26 | 29.7 |  |  |  |  |  |  |  | 
COc1ccc2nc(NC(=O)C(=O)C(C#N)c3ccc([N+](=O)[O-])cc3)sc2c1 (stereo not drawn) |  |  | > 100 | > 100 | > 100 | > 100 | > 100 | > 100 |  |  |  |  |  |  |  | 
